Reference: patent US20260193163A1, “CRYSTAL FORM OF L-ARGININE (S)-2-(1-ACETOXY-N-PENTYL)BENZOATE, AND PREPARATION METHOD THEREFOR AND USE THEREOF” (JIANGSU KANION PHARMACEUTICAL CO., LTD., priority 2023, published 2026)

How the values were obtained:
[1] = Crystal form stability study (PXRD, DSC, TGA on day 0, 5, 10); type: physicochemical; details: 10 days
Description: Samples of crystal form I were subjected to physical stability tests under different storage conditions. The storage conditions were respectively: • (1) High temperature: 60° C. • (2) High humidity: RH 90%±5% • (3) Under light exposure: 4500 lx±500 lx, with the total illumination from the light source reaching 1.2×10^6 lux·hr PXRD, DSC, and TGA tests were performed on the samples on day 0, day 5, and day 10, respectively, to investigate the stability of the samples under high temperature, high humidity, and light exposure conditions. The experimental results are detailed in FIG. 8 to FIG. 16 of the description.

[2] = Intrinsic dissolution rate in SGF or FeSSIF; type: physicochemical; details: 37° C., 100 rpm, 5-120 min, HPLC
Description: Samples of crystal form I (25 mg each) were weighed, placed into intrinsic dissolution rate metal modules, and maintained at a pressure of 20 pounds for 30 s and then placed in 20 mL of SGF (Simulated Gastric Fluid) or FeSSIF (Fed-State Simulated Intestinal Fluid) physiological medium, respectively. The medium was maintained at 37° C. and a rotation speed at 100 rpm throughout the process. Then, at 5, 15, 30, 45, 60, 90, and 120 min, respectively, a 0.5 mL aliquot of the solution was taken and filtered through a 0.22 μm aqueous microfiltration membrane. And the volume was replenished with 0.5 mL of the corresponding physiological medium. The concentration was determined according to an HPLC content assay method.

In the case of `CCCC[C@H](OC(C)=O)c1ccccc1C(=O)O` [crystal form I, L-arginine (S)-2-(1-acetoxy-n-pentyl)benzoate], the “Change of powder diffraction pattern, DSC trace and TGA trace (physical stability, crystal form transformation)” value (shortened to “Change of powder diffraction pattern”) ([1]; high humidity RH 90%±5%) is reported as “no significant difference”, the “Change of powder diffraction pattern” value ([1]; high temperature 60° C.) is reported as “no significant difference” and the “Change of powder diffraction pattern” value ([1]; light exposure 4500 lx±500 lx, total illumination 1.2×10^6 lux·hr) is reported as “no significant difference”. For the same molecule, the “Dissolution rate compared with the solid obtained in Comparative Example 1” value [2] was “significantly higher”.
